The text below walks through data of ChEMBL document CHEMBL4888484, “Replenishing the malaria drug discovery pipeline: Screening and hit evaluation of the MMV Hit Generation Library 1 (HGL1) against asexual blood stage Plasmodium falciparum ,using a nano luciferase reporter read-out” (2022).

Data set [1] deals with Plasmodium falciparum. The data set is described as follows: Hit confirmation in dose-response curve in NF54 nanoGlo assay, at 12h. More on the design: timepoint 12 hour. It is filed as functional, organism-based, Erythrocyte. The note with it: Plasmodium falciparum, NF54, Erythrocyte, 12 h.
Data set [2] has as its system Plasmodium falciparum. In words: Hit confirmation in dose-response curve in NF54 nanoGlo assay, at 72h. The data set is classed as functional, organism-based, Erythrocyte. As to conditions: Plasmodium falciparum, NF54, Erythrocyte, 72 h. More on the design: timepoint 72 hour.
Data set [3] in a line: Hit confirmation in dose-response curve in HepG2 cytotoxicity assay, at 72h. The data set is classed as toxicity, cell-based. The arrangement: timepoint 72 hour. The note with it: human, HepG2 cells.
For data set [4], the system named is Plasmodium falciparum. The data set is described as follows: Hit confirmation in dose-response curve in Dd2 pLDH assay, at 72h. The data set is classed as functional, organism-based. The arrangement: timepoint 72 hour. As to conditions: Dd2, Erythrocyte.
Data set [5] relates to Plasmodium falciparum. The data set is described as follows: Hit confirmation in dose-response curve in NF54 pLDH assay, at 72h. The data set is classed as functional, organism-based. The arrangement: timepoint 72 hour. The note with it: NF54, Erythrocyte.

As usually defined, the IC50 is the concentration that gives 50% inhibition. A lower IC50 goes with inhibition by little substance. With `Cn1c(Cc2n[n+]3c(-c4ccccc4)cc(-c4ccccc4)nc3n2C)n[n+]2c(-c3ccccc3)cc(-c3ccccc3)nc12`, the IC50 in data set [1] was 1.74 µM; in data set [2], 0.257 µM; in data set [4] it was 0.234 µM; in data set [5] it was 0.331 µM. Also, the IC50 at 72 h in data set [3] turned out to be 4.79 µM.

In the case of `CCc1cccc(NC(=O)Cn2ccc3ccc(-c4nnc(C)o4)cc32)c1`, the IC50 in data set [1] came out at 2.63 µM; in data set [2], 1.82 µM; in data set [4], 2.4 µM; in data set [5], 2.69 µM. In data set [3], this compound showed an IC50 at 72 h of more than 10 µM.

As to `Cc1ccc(NC(=O)N2CCCN(c3ccc(NC(=O)c4cccs4)cc3C(=O)NCc3ccc(F)cc3)CC2)cc1`, the IC50 in data set [1] was 6.92 µM; in data set [2] it was 3.63 µM; in data set [4], more than 10 µM; in data set [5], 7.94 µM. Moreover, in data set [3], the IC50 at 72 h was more than 10 µM.

Consider `Cn1n[n+](CCCCC(Cl)(Cl)Cl)c2ccccc21`, for which the IC50 in data set [1] was more than 10 µM; in data set [2], 2.82 µM; in data set [4], 2.88 µM; in data set [5], 3.31 µM. The compound also yielded an IC50 at 72 h in data set [3] of more than 10 µM.

Turning to `COc1cccc2c(=O)c3c([nH]c12)CCN(CC(=O)NCc1ccccc1Cl)C3`, the IC50 in data set [1] is more than 10 µM; in data set [2], 9.77 µM; in data set [4], 9.12 µM; in data set [5], 10 µM. This compound also yielded an IC50 at 72 h in data set [3] of more than 10 µM.

Turning to `COc1ccccc1C1c2[nH]c3ccccc3c2C[C@H]2C(=O)N(CC(O)c3ccccc3)CC(=O)N12` (stereo not given in full), the IC50 is 4.47 µM in data set [1], 3.16 µM in data set [2], more than 10 µM in data set [4] and 8.91 µM in data set [5]. Besides, in data set [3], the IC50 at 72 h was more than 10 µM.

As to `CCC[N+]1(CC#C[C@@](O)(c2ccccc2)C(C)(CC)CC)CCCCC1`, the IC50 is more than 10 µM in data set [1], 3.39 µM in data set [2], 4.27 µM in data set [4] and 4.37 µM in data set [5]. The compound also gave an IC50 at 72 h in data set [3] of more than 10 µM.

For `Cc1nsc2ncc(C(=O)N3CCC(C)CC3)c(N3CCC(C(=O)Nc4cc(F)ccc4F)CC3)c12`, the IC50 in data set [1] was 6.92 µM; in data set [2], 2.82 µM; in data set [4], 9.77 µM; in data set [5], 11.5 µM. In addition, in data set [3], the 50% inhibitory concentration (IC50) at 72 h was more than 10 µM.

In the case of `OC(CNC1CCCNc2ccccc21)c1ccc(Cl)s1` (stereo not given), the IC50 in data set [1] came to 2.95 µM; in data set [2], 2.29 µM; in data set [4], 3.63 µM; in data set [5], 3.89 µM. Moreover, the IC50 at 72 h in data set [3] was more than 10 µM.

For `Cc1ccc(C(=O)N(Cc2cccc(F)c2)c2ccc(CC(=O)N[C@@H](C)c3ccccc3)cc2)cc1`, the IC50 in data set [1] was more than 10 µM; in data set [2] it was 1.66 µM; in data set [4], 3.09 µM; in data set [5], 4.27 µM. In addition, the IC50 at 72 h in data set [3] is more than 10 µM.

Regarding `Cn1c(=O)c2c(-c3ccc(Cl)cc3)n(-c3cccc4cccc(N)c34)cc2n(C)c1=O`, the IC50 was more than 10 µM in data set [1], more than 10 µM in data set [2], more than 10 µM in data set [4] and 0.0182 µM in data set [5]. Also, in data set [3], the IC50 at 72 h was more than 10 µM.

As to `N#Cc1c(-c2ccccc2)cc(-c2ccccc2)nc1S(=O)(=O)Cc1ccccc1`, the IC50 in data set [1] came out at 6.61 µM; in data set [2], 3.09 µM; in data set [4] it was 3.55 µM; in data set [5], 4.07 µM. In data set [3], this compound yielded an IC50 at 72 h of more than 10 µM.

`O=C(Cc1ccc(N(Cc2cccc(F)c2)C(=O)c2cccc(F)c2)cc1)NCCN1CCCCC1`: the IC50 in data set [1] is more than 10 µM; in data set [2] it was 3.24 µM; in data set [4] it was 7.94 µM; in data set [5] it was 5.25 µM. In addition, the IC50 at 72 h in data set [3] was more than 10 µM.

As to `COc1ccc(CN2CC[C@@H]3C(=O)NCCCCCCN(Cc4ccncc4)[C@@H]3C2)cc1Cn1ccnc1`, the IC50 in data set [1] turned out to be 7.08 µM; in data set [2] it was 1.1 µM; in data set [4], 1.17 µM; in data set [5] it was 1.15 µM. Besides, the IC50 at 72 h in data set [3] is more than 10 µM.

Regarding `c1ccc(-c2nc(C[n+]3ccc4c(c3)CCCC4)cs2)cc1`, the IC50 was more than 10 µM in data set [1], 1.2 µM in data set [2], 0.832 µM in data set [4] and 0.0891 µM in data set [5]. In data set [3], this compound yielded an IC50 at 72 h of more than 10 µM.

Take `NC(=O)c1ccccc1NC(=O)C1CCN(c2cc(C3CC3)ncn2)CC1`: the IC50 stood at 2.4 µM in data set [1], 2.04 µM in data set [2], 6.31 µM in data set [4] and 8.32 µM in data set [5]. In addition, in data set [3], the IC50 at 72 h was more than 10 µM.

Regarding `CC[n+]1c(/C=C/N(C)c2ccccc2)oc2ccccc21`, the IC50 in data set [1] is more than 10 µM; in data set [2], 0.724 µM; in data set [4], 0.661 µM; in data set [5], 0.741 µM. Also, in data set [3], the IC50 at 72 h was more than 10 µM.

As for `Cc1nn(-c2nc3ccccc3[nH]2)c2c1[C@@H](c1cccnc1)CC(=O)N2`, the IC50 in data set [1] is 2.19 µM; in data set [2], 1.55 µM; in data set [4], more than 10 µM; in data set [5], 6.46 µM. In data set [3], this compound displayed an IC50 at 72 h of more than 10 µM.

For `Cc1nc(C(=O)Nc2[nH]c(=O)ncc2F)c(-c2ccccc2)o1`, the IC50 was 9.55 µM in data set [1], 0.00832 µM in data set [2], more than 10 µM in data set [4] and 0.0126 µM in data set [5]. The compound also had an IC50 at 72 h in data set [3] of more than 10 µM.

For `Cc1oc(-c2ccc(C(=O)N3CCN(c4ccccc4)CC3)cc2)nc1CN1CCC(C)CC1`, the IC50 in data set [1] was 2.34 µM; in data set [2], 2.14 µM; in data set [4], more than 10 µM; in data set [5], 3.39 µM. In data set [3], this compound displayed an IC50 at 72 h of more than 10 µM.

For `O=C(c1cc(-c2ccco2)n[nH]1)N1CCC(N2CCC(Oc3ccccc3F)CC2)CC1`, the IC50 in data set [1] is more than 10 µM; in data set [2], 2.82 µM; in data set [4], 4.68 µM; in data set [5] it was 1.82 µM. The IC50 at 72 h in data set [3] was more than 10 µM.

As for `CC1([C@@](O)(C#CC[N+]2(C)CCCCC2)c2ccccc2)CCCC1`, the IC50 in data set [1] is more than 10 µM; in data set [2] it was 2.19 µM; in data set [4], 1.26 µM; in data set [5], 1.41 µM. Moreover, in data set [3], the IC50 at 72 h is more than 10 µM.

Consider `COc1ccc(-c2c(C)nn3c(N4CCC(C(=O)NC5CC5)CC4)cc(C)nc23)cc1OC`, for which the IC50 in data set [1] is 1.95 µM; in data set [2], 2.69 µM; in data set [4] it was more than 10 µM; in data set [5], more than 10 µM. In data set [3], this compound came in with an IC50 at 72 h of more than 10 µM.

For the compound `O=C(NC1=NN2C(=NC(c3ccc(Cl)cc3)=C[C@H]2c2ccc(F)cc2)N1)c1ccc(Cl)cc1`, the IC50 amounted to 4.17 µM in data set [1], 2.29 µM in data set [2], 3.16 µM in data set [4] and 2.95 µM in data set [5]. Moreover, in data set [3], the IC50 at 72 h was more than 10 µM.

On to `Cc1noc(Cl)c1CC(=O)N1CCCC(C)(C)CC1`, for which the half-maximal inhibitory concentration (IC50) in data set [1] was 7.94 µM; in data set [2], 2.29 µM; in data set [4], 4.07 µM; in data set [5], 5.62 µM. This compound also came in with an IC50 at 72 h in data set [3] of more than 10 µM.

Take `COc1cc(CNCCCN2CCOCC2)ccc1OCc1ccc(Cl)cc1`: the IC50 in data set [1] stood at 6.03 µM; in data set [2] it was 2.88 µM; in data set [4] it was 2.95 µM; in data set [5] it was 4.47 µM. The same compound yielded an IC50 at 72 h in data set [3] of more than 10 µM.

As for `COc1ccc(CNCc2ccc(C)cc2)cc1Cn1ccnc1`, the concentration for half-maximal inhibition (IC50) is 2.88 µM in data set [1], 1.86 µM in data set [2], 1.41 µM in data set [4] and 2.69 µM in data set [5]. This compound came in with an IC50 at 72 h in data set [3] of more than 10 µM.
